Here are results for three molecules from patent publication US7442807B2, “N-phenylpyrrole guanidine derivatives as melanocortin receptor ligands” (Action Pharma A/S, priority 2001, dated 2008).

The target of experiment [1] is T1, MC5 (Homo sapiens, UniProt P33032). Nature of the experiment: Test 2. Affinity for the MC5-receptors (I125-NDP-αMSH binding). The note with it: I125-NDP-αMSH as ligand; read-out: Affinity for MC-receptors Ki MC5. On the procedure:
(§1) Test 2. Affinity for the MC3-receptors, the MC4-receptors and the MC5-receptors
(§2) The binding assays were carried out essentially as described by Szardenings et al, J Biol Chem 1997; 272; 27943-27948 and Schiöth et al, FEBS Lett 1997; 410; 223-228 using I125-NDP-αMSH as ligand.

Experiment [2] deals with T2, MC4 (Homo sapiens, UniProt P32245). Nature of the experiment: Test 2. Affinity for the MC4-receptors (I125-NDP-αMSH binding). The note with it: I125-NDP-αMSH as ligand; read-out: Affinity for MC-receptors Ki MC4. On the procedure:
as §1, §2

In experiment [3] the target is T2, MC4. Nature of the experiment: Test 3. cAMP stimulation, MC4. The note with it: response relative to α-MSH. Type of experiment: cell-based. On the procedure: (§3) The stimulation of cAMP was carried out essentially as described by Schiöth et al, Br J Pharmacol 1998; 124; 75-82, however, the response is given relative to α-MSH.
For experiment [4], the target named is T3, MC3 (Homo sapiens, UniProt P41968). Nature of the experiment: Test 2. Affinity for the MC3-receptors (I125-NDP-αMSH binding). The note with it: I125-NDP-αMSH as ligand; read-out: Affinity for MC-receptors Ki MC3. On the procedure:
as §1, §2

In experiment [5] the target is T3, MC3. Nature of the experiment: Test 3. cAMP stimulation, MC3. Type of experiment: cell-based. Conditions: response relative to α-MSH. On the procedure: as §3
In experiment [6] the target is T1, MC5. The experiment can be described thus: Test 3. cAMP stimulation, MC5. Type of experiment: cell-based. Conditions: response relative to α-MSH. On the procedure: as §3
Another experiment addresses MC1 (Homo sapiens, UniProt Q01726). The experiment can be described thus: Test 3. cAMP stimulation, MC1. Type of experiment: cell-based. Conditions: response relative to α-MSH. On the procedure:
as §3

The next experiment has as its target MC1-receptor (Mus musculus, UniProt Q01727). Nature of the experiment: Test 1. Affinity for the MC1-receptor (I125-NDP-αMSH binding). Conditions: I125-NDP-αMSH as ligand; read-out: Affinity for MC-receptors Ki MC1. An excerpt:
Test 1. Affinity for the MC1-receptor
The binding assay was cared out essentially as described by Lunec et al, Melanoma Res 1992; 2; 5-12 using I^125-NDP-αMSH as ligand.

T3 sequence (P41968 whole entry): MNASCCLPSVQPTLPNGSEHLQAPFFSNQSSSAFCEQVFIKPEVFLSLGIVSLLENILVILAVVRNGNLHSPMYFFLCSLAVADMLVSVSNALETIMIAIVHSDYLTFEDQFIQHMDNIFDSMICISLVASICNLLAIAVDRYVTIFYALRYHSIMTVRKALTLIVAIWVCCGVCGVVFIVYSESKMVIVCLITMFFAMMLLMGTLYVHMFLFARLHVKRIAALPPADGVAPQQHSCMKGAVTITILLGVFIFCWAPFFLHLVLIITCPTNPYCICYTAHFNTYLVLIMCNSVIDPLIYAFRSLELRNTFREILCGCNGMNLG
T1 sequence (P33032 whole entry): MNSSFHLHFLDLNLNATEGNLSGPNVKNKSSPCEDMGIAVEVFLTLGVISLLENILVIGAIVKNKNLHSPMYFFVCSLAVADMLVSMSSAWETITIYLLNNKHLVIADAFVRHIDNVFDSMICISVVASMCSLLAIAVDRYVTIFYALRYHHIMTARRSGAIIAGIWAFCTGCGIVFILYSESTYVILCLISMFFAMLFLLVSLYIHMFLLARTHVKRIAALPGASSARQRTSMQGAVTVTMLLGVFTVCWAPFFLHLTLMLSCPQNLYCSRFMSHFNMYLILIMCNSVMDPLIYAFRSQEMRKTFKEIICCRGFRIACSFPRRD
T2 sequence (P32245 whole entry): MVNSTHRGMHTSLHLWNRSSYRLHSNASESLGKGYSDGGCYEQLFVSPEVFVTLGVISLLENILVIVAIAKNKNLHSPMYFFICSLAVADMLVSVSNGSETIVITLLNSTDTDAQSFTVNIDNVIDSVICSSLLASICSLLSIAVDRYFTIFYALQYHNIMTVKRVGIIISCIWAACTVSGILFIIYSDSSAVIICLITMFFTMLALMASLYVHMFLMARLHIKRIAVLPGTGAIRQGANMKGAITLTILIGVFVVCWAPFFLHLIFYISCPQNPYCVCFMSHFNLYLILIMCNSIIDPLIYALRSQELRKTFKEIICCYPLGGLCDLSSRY
Sequence of MC1-receptor (Q01727 whole entry): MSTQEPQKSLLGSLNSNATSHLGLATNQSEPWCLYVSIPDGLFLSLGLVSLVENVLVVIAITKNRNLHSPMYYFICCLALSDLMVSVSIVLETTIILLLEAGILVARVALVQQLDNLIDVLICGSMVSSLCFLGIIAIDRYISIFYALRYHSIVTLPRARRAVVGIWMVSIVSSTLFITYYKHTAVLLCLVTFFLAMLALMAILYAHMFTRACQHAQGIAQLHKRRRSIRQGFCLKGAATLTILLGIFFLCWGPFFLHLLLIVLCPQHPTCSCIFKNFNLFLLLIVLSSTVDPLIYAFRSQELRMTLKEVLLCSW
Sequence of MC1 (Q01726 whole entry): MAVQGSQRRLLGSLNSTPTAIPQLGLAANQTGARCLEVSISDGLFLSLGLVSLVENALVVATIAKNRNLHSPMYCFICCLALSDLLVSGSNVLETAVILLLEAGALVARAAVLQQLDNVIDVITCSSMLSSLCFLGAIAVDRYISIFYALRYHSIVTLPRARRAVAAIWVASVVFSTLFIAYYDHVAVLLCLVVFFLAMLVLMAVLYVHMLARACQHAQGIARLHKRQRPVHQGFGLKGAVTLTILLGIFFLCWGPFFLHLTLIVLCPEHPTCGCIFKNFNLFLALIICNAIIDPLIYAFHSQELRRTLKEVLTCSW

For `N=C(N)NN=Cc1cccn1-c1ccc(C(F)(F)F)cc1` [Compound 48, N-[(1-(4-Trifluoromethylphenyl)-1H-pyrrol-2-yl)methyleneamino]guanidine], the Ki at MC5 [1] was 7.8 µM; on MC4 [2], 0.07 µM.
Regarding `N=C(N)NN=Cc1cccn1-c1cc(Cl)cc(Cl)c1` [Compound 50, N-[(1-(3,5-dichlorophenyl)-1H-pyrrol-2-yl)methyleneamino]guanidine], the Ki on MC5 [1] stood at 7.52 µM; on MC4 [2], 3.6 µM; on MC3 [4], 12.8 µM. Also, the “Influence on cAMP: cAMP agonist/plateau stim. α-MSH (%) MC4” value on MC4 [3] came to 36%.
For “N-{1-[(4-Chlorophenyl)-1H-Pyrrol-2-yl]methylene-amino}guanidine [Compound 1]”, the “Influence on cAMP: cAMP agonist/plateau stim. α-MSH (%) MC3” value on MC3 [5] stood at 35%. Besides, the “Influence on cAMP: cAMP agonist/plateau stim. α-MSH (%) MC5” value on MC5 [6] is reported as 6%. The Ki worked out at 17.5 µM at MC5 [1], 5.1 µM at MC4 [2], 15.6 µM on MC3 [4] and 0.42 µM at MC1-receptor. Moreover, at MC4 [3], the “Influence on cAMP: cAMP agonist/plateau stim. α-MSH (%) MC4” value amounted to 118%. For the same molecule, at MC1, the “Influence on cAMP: cAMP agonist/plateau stim. α-MSH (%) MC1” value was determined as 30%.

By Ki is commonly meant a dissociation constant, usually derived from enzyme kinetics or from competition with a known ligand.
